# Data published in patent publication US6878388B1, “Vanadium compounds for treating proliferative cell disorders” (Parker Hughes Institute, priority 2000, dated 2005).
# Where two headings read alike, the source gives them in different places.
# Columns and labels:
# [1] = tested on: U138 human glioblastoma cells; experiment: MTT cytotoxicity assay, U138; format: cell-based; settings: 48 h incubation, 3 independent experiments, read-out: IC50 (mean ± SE)
# Experimental: (§1) Human brain tumor cells lines U87 MG (Cat.# HTB-14), U118 MG (Cat. # HTB-15), U138 (Cat # HTB-16), U373 MG (CAT. # HTB-17), and T98G (Cat. # CRL-1690) and breast cancer cell lines BT-20 (Cat # HTB-19), MDA-MB-231 (Cat # HTB-26), MDA-MB-361 (Cat # HTB-27), and MCF-7 (Cat # HTB-22) were obtained from American Type Culture Collection (ATCC, Rockville, Md.) and maintained as continuous cell lines in Dulbecco's modified Eagles's medium (U87, U118, U138, U373, T98 and BT-20) or Leibovitz's L-15 medium (MDA-MB-231 and MDA-MB-361). All media were supplemented with 10% fetal calf serum (FCS), 4 mM glutamine, 100 U/ml penicillin G and […] streptomycin sulfate. All tissue culture reagents were obtained from Life Technologies Inc. (GIBCO-BRL, Gaithersburg, Md.).
# (§2) The cytotoxicity of [VO(SO4)(Me2-Phen)2] against human cancer cell lines was analyzed using the MTT (3-[4,5-dimethylthiazol-2-yl]-2,5-diphenyl tetrazolium bromide) assay (Boehringer Mannheim Corp., Indianapolis, Ind.) as described previously (Narla et al., Clin Cancer Res., 4: 1405-1414, 1998). […] The absorbance at 540 nm (a reference wavelength of 690 nm was used) of the solution in each well was measured using a microplate reader (Labsystems). The percent survival and the IC50 values were calculated using Graphpad Prism v2.0 (Graphpad Software, Inc., San Diego, Calif.) as described previously (Narla et al., Supra). […]
# [2] = tested on: U87 glioblastoma cells; experiment: In vitro adhesion assay to ECM proteins, U87; format: cell-based, human; settings: 16 h pretreatment, mean ± SE of 3 experiments
# Experimental: In vitro adhesion assays were used to evaluate the effects of [VO(SO4)(Me2-Phen)2] on the adhesive properties of U87 and MDA-MD-231 cells as described previously (Narla et al., Clin Cancer Res, 4: 2463-2471, 1998). The plates for the adhesion assays were pre-coated with the extracellular matrix (ECM) proteins laminin, fibronectin, vitronectin and type IV collagen (each at a final concentration of 1 μg/ml in PBS) overnight at 4° C. and dried. Exponentially-growing cells (as described in the previous Example) were incubated with [VO(SO4)(Me2-Phen)2] at concentrations ranging from 0.5 μM to 25 μM for 16 hours in a humidified 5% CO2 atmosphere. The cells were then detached from the flasks with 0.05% trypsin (Life Technologies), resuspended in medium, incubated at 37° C. for 2 hours to allow them to recover from the trypsinization stress and examined for their ability to adhere to the plates precoated with ECM proteins. Cells were centrifuged, washed twice with serum-free medium, counted and resuspended in serum-free medium at a final concentration of 2.5×10^5 cells/ml. The cell suspension was added to each well in aliquots of 100 μl and the cells were allowed to adhere for one hour at 37° C. in a humidified 5% CO2atmosphere. The non-adherent cells were removed by gently washing the cells with PBS. The adherent fraction was quantitated using MTT assays as previously described (Narla, Supra).
# U87 glioblastoma and MDA-MD-231 breast cancer cells were preincubated with various concentrations of [VO(SO4)(Me2-Phen)2] and processed for adhesion assays. [VO(SO4)(Me2-Phen)2] inhibited adhesion of the U87 and MDA-MB-231 cells to extracellular matrix (ECM) proteins, Pretreatment of cells with [VO(SO4)(Me2-Phen)2] inhibited the adhesion of U87 glioblastoma and MDA-MB-231 breast cancer cells to laminin-, fibronectin-, vitronectin- and collagen-coated plates. The inhibition of glioblastoma cell adhesion was concentration-dependent with mean (±SE) IC50 values from 3 independent experiments shown in the table below.
# [3] = tested on: MDA-MB-361 breast cancer cells; experiment: MTT cytotoxicity assay, MDA-MB-361; format: cell-based, human; settings: MDA-MB-361 cells, 48 h incubation, 3 independent experiments, read-out: IC50 (mean ± SE)
# Experimental: as §1, §2
# [4] = tested on: U87 glioblastoma cells; experiment: In situ detection of apoptosis (TdT-mediated dUTP nick-end labeling), U87; format: cell-based, human; settings: dUTP-FITC labeling, read-out: apoptotic EC50
# Experimental: Apoptosis was detected using an in situ cell death detection kit (Boehringer Mannheim Corp., Indianapolis, Ind.) as described previously (Albini et al., J. Cell Biol., 105: 1867-1872, 1987; Huang et al., J Biol Chem., 272: 2927-2935, 1997). Cells were incubated with [VO(SO4)(Me2-Phen)2] for 48 hours at 37° C., fixed, permeabilized, incubated with the reaction mixture containing terminal deoxynucleotidyl transferase (TdT) and fluorescein isothiocyanate (FITC)-conjugated dUTP and counterstained with propidium iodide. Cells were transferred to slides and viewed with confocal laser scanning microscope (Bio-Rad MRC 1024) mounted on a Nikon Eclipse E800 series upright microscope as previously reported (Narla et al., Supra).
# Administration of [VO(SO4)(Me2-Phen)2] to cells induced apoptotic or programmed cell death as determined using the TdT-mediated dUTP nick-end labeling of exposed 3′-OH termini of DNA with dUTP-FITC.
# [5] = tested on: T98 human glioblastoma cells; experiment: MTT cytotoxicity assay, T98; format: cell-based; settings: 48 h incubation, 3 independent experiments, read-out: IC50 (mean ± SE)
# Experimental: as §1, §2
structure (smiles),measurement,setting,value
"Cc1ccnc2c1ccc1c(C)ccnc12.Cc1ccnc2c1ccc1c(C)ccnc12.O=S(=O)([O-])[O-].[O]=[V+2] [[VO(SO4)(Me2-Phen)2], bis(4,7-dimethyl-1,10-phenanthroline) sulfatooxovanadium (IV)]",IC50,[1],2.7 ± 0.4 µM
same,IC50,"[2]; U87, fibronectin-coated plates, read-out: IC50 inhibition of adhesion to fibronectin",1.3 µM
same,IC50,"[2]; U87, laminin-coated plates, read-out: IC50 inhibition of adhesion to laminin",1.4 ± 0.1 µM
same,IC50,"[2]; U87, type IV collagen-coated plates, read-out: IC50 inhibition of adhesion to collagen",1.2 µM
same,IC50,"[2]; U87, vitronectin-coated plates, read-out: IC50 inhibition of adhesion to vitronectin",1.2 ± 0.1 µM
same,IC50,[3],1.9 ± 0.5 µM
same,EC50,[4],4.2 ± 0.9 µM
same,IC50,[5],3.9 ± 0.5 µM
